This note sets out measurements from US9206156B2, “Substituted indole derivatives” (GRÜNENTHAL GMBH, priority 2008, dated 2015).

Assay [1] addresses T1, human μ-opiate receptor (Homo sapiens, UniProt P35372).
T1 construct: purchased NEN, Zaventem, Belgium RB-HOM; host or cells: CHO-K1 cells (membrane preparation)
As to the kind of experiment: μ-opiate receptor binding assay with [3H] naloxone (WGA-SPA beads). The following applies: 1 μmol/l test substance, 1 nmol/l [3H] naloxone, CHO-K1 cell membranes expressing human μ-opiate receptor. The procedure, abridged:
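Scintillation proximity readout: [3H]naloxone (1 nmol/l) displacement measured after 90 min, room temperature, on human μ-receptor CHO-K1 membranes in Tris-HCl/azide/BSA buffer; 25 μmol/l naloxone defined non-specific binding. Values are % specific-binding inhibition at 1 μmol/l, or Ki from IC50 (Cheng-Prusoff).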

The target in assay [2] is T2, ORL1 receptor (Homo sapiens, UniProt P41146).
T2 construct: expressed in transfected cells; host or cells: CHO (recombinant CHO-ORL1 cells), membranes
Briefly: ORL1 receptor binding assay with 3H-nociceptin/orphanin FQ (WGA-SPA beads). Particulars: c=1 μM test substance; 0.5 nM 3H-nociceptin/orphanin FQ; membranes of recombinant CHO-ORL1 cells. The procedure, abridged: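 Affinity given as nanomolar Ki or as % inhibition at c=1 μM. Membranes of CHO cells expressing recombinant ORL1 (20 μg protein) were incubated one hour at room temperature with 0.5 nM 3H-nociceptin/orphanin FQ in Hepes 50 mM, pH 7.4, plus MgCl2 and EDTA; bound ligand detected by SPA bead scintillation counting.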

T1 sequence (P35372 whole entry): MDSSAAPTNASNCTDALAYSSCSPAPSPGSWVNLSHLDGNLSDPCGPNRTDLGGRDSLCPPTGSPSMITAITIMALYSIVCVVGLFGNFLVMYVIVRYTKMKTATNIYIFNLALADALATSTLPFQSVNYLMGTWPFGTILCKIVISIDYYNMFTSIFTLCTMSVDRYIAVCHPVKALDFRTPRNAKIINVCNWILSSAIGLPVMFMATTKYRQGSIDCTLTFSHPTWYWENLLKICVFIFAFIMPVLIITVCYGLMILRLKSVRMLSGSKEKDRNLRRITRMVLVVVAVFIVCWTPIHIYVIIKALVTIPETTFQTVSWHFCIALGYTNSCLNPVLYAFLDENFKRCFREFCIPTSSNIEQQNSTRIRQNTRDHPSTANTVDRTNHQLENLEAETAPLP
T2 sequence (P41146 whole entry): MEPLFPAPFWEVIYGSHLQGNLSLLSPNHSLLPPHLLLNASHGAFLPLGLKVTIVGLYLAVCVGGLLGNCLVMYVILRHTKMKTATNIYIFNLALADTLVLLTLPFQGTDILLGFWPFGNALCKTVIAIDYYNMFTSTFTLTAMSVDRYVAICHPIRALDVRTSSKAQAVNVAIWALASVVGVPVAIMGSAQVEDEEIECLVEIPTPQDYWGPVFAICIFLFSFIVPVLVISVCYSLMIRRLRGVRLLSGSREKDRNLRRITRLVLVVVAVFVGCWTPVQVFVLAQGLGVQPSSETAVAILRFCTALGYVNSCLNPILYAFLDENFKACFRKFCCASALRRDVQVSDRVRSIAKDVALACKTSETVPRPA

As to `COc1ccc2[nH]c(C(=O)N(C)CCCN3CCC(c4ccccc4)(N(C)C)CC3)cc2c1` [Example 66, N-(3-(4-(Dimethylamino)-4-phenylpiperidin-1-yl)propyl)-5-methoxy-N-methyl-1H-indole-2-carboxamide], the results for the inhibition at 1 µM in assay [1] and in assay [2] were 71% and 33%, respectively.
The matching figures for `CC(C)c1ccc2c(CN(C)CCCN3CCC(c4cccs4)(N(C)C)CC3)c[nH]c2c1` [Example 67, 1-(3-(((6-Isopropyl-1H-indol-3-yl)methyl)(methyl)amino)propyl)-N,N-dimethyl-4-(thiophen-2-yl)piperidin-4-amine]: 93% and 90%.
For `CN(CCN1CCC(c2ccccc2)(N(C)C)CC1)Cc1ccc2[nH]ccc2c1` [Example 68, 1-(2-(((1H-Indol-5-yl)methyl)(methyl)amino)ethyl)-N,N-dimethyl-4-phenylpiperidin-4-amine], the inhibition (in general, the drop in the measured response relative to a control, in per cent) at 1 µM came out at 93% in assay [1] and 65% in assay [2].
In the case of `CN(C)C1(c2cccs2)CCN(CCNCc2ccc3[nH]ccc3c2)CC1` [Example 69, 1-(2-((1H-Indol-5-yl)methylamino)ethyl)-N,N-dimethyl-4-(thiophen-2-yl)piperidin-4-amine], the results for the inhibition at 1 µM in assay [1] and in assay [2] were 96% and 90%, respectively.
Regarding `CN(CCN1CCC(c2ccccc2)(N(C)C)CC1)Cc1c(-c2ccc(F)cc2)[nH]c2ccccc12` [Example 70, 1-(2-(((2-(4-Fluorophenyl)-1H-indol-3-yl)methyl)(methyl)amino)ethyl)-N,N-dimethyl-4-phenylpiperidin-4-amine], the results for the inhibition at 1 µM in assay [1] and in assay [2] were 98% and 80%, respectively.
`CN(CCN1CCC(c2ccccc2)(N(C)C)CC1)Cc1c(-c2ccccc2)[nH]c2ccccc12` [Example 71, N,N-Dimethyl-1-(2-(methyl((2-phenyl-1H-indol-3-yl)methyl)amino)ethyl)-4-phenylpipendin-4-amine]: the inhibition at 1 µM in assay [1] stood at 96%; in assay [2], 83%.
Take `CN(C)C1(c2cccs2)CCN(CCNCc2c[nH]c3ccc(Cl)cc23)CC1` [Example 72, 1-(2-((5-Chloro-1H-indol-3-yl)methylamino)ethyl)-N,N-dimethyl-4-(thiophen-2-yl)piperidin-4-amine]: in assay [1] (1 µM), the “% Inhibition (μ) at 1 μM” value is listed as 101%. Further, the “% Inhibition (ORL1) at 1 μM” value in assay [2] amounted to 95%.
With `CC(C)c1ccc2c(CN(C)CCN3CCC(c4ccccc4)(N(C)C)CC3)c[nH]c2c1` [Example 73, 1-(2-(((6-Isopropyl-1H-indol-3-yl)methyl)(methyl)amino)ethyl)-N,N-dimethyl-4-phenylpiperidin-4-amine], the “% Inhibition (μ) at 1 μM” value in assay [1] came to 95%. Besides, the “% Inhibition (ORL1) at 1 μM” value in assay [2] amounted to 95%.
As for `CC(C)c1ccc2c(CNCCN3CCC(c4cccs4)(N(C)C)CC3)c[nH]c2c1` [Example 74, 1-(2-((6-Isopropyl-1H-indol-3-yl)methylamino)ethyl)-N,N-dimethyl-4-(thiophen-2-yl)pipendin-4-amine], the inhibition at 1 µM in assay [1] is 99%; in assay [2], 97%.
`COc1ccc2[nH]cc(CN(C)CCN3CCC(c4ccccc4)(N(C)C)CC3)c2c1` [Example 75, 1-(2-(((5-Methoxy-1H-indol-3-yl)methyl)(methyl)amino)ethyl)-N,N-dimethyl-4-phenylpiperidin-4-amine]: the “% Inhibition (μ) at 1 μM” value in assay [1] (1 µM) amounted to 97%. The “% Inhibition (ORL1) at 1 μM” value in assay [2] turned out to be 79%.
Turning to `COc1ccc2[nH]cc(CNCCN3CCC(c4cccs4)(N(C)C)CC3)c2c1` [Example 76, 1-(2-((5-Methoxy-1H-indol-3-yl)methylamino)ethyl)-N,N-dimethyl-4-(thiophen-2-yl)pipendin-4-amine], the “% Inhibition (μ) at 1 μM” value in assay [1] is on record as 99%. Besides, the “% Inhibition (ORL1) at 1 μM” value in assay [2] is 93%.
In the case of `COc1ccc2c(c1)c(CN(C)CCN1CCC(c3ccccc3)(N(C)C)CC1)c(C)n2Cc1ccccc1` [Example 77, 1-(2-(((1-Benzyl-5-methoxy-2-methyl-1H-indol-3-yl)methyl)(methyl)amino)ethyl)-N,N-dimethyl-4-phenylpiperidin-4-amine], the “% Inhibition (μ) at 1 μM” value in assay [1] (1 µM) is given as 89%. For the same compound, in assay [2], the “% Inhibition (ORL1) at 1 μM” value is 60%.
With `COc1ccc2c(c1)c(CNCCN1CCC(c3cccs3)(N(C)C)CC1)c(C)n2Cc1ccccc1` [Example 78, 1-(2-((1-Benzyl-5-methoxy-2-methyl-1H-indol-3-yl)methylamino)ethyl)-N,N-dimethyl-4-(thiophen-2-yl)piperidin-4-amine], the inhibition at 1 µM was found to be 93% in assay [1] and 62% in assay [2].
As for `Cc1c(CN(C)CCN2CCC(c3ccccc3)(N(C)C)CC2)c2ccccc2n1C` [Example 79, 1-(2-(((1,2-Dimethyl-1H-indol-3-yl)methyl)(methyl)amino)ethyl)-N,N-dimethyl-4-phenylpiperidin-4-amine], in assay [1] (1 µM), the “% Inhibition (μ) at 1 μM” value is on record as 101%. The “% Inhibition (ORL1) at 1 μM” value in assay [2] amounted to 83%.
Regarding `Cc1c(CNCCN2CCC(c3cccs3)(N(C)C)CC2)c2ccccc2n1C` [Example 80, 1-(2-((1,2-Dimethyl-1H-indol-3-yl)methylamino)ethyl)-N,N-dimethyl-4-(thiophen-2-yl)pipendin-4-amine], the inhibition at 1 µM in assay [1] is 101%; in assay [2], 97%.
The matching figures for `Cc1c(CN(C)CCCN2CCC(c3cccs3)(N(C)C)CC2)c2ccccc2n1C` [Example 81, 1-(3-(((1,2-Dimethyl-1H-indol-3-yl)methyl)(methyl)amino)propyl)-N,N-dimethyl-4-(thiophen-2-yl)piperidin-4-amine]: 100% and 98%.
The matching figures for `CC(C)C(C(=O)N1CCC(c2ccccc2)(N(C)C)CC1)N(C)C(=O)Cc1c[nH]c2cc(F)ccc12` (stereo not shown) [Example 82, N-(1-(4-(dimethylamino)-4-phenylpiperidin-1-yl)-3-methyl-1-oxobutan-2-yl)-2-(6-fluoro-1H-indol-3-yl)-N-methylacetamide]: 97% and 97%.
The matching figures for `CC(C)C(C(=O)N1CCC(c2ccccc2)(N(C)C)CC1)N(C)C(=O)Cc1c[nH]c2ccc(Br)cc12` (stereo not shown) [Example 83, 2-(5-bromo-1H-indol-3-yl)-N-(1-(4-(dimethylamino)-4-phenylpiperidin-1-yl)-3-methyl-1-oxobutan-2-yl)-N-methylacetamide]: 84% and 95%.
Turning to `CC(C)C(CC(=O)NCCC(=O)N1CCC(c2ccccc2)(N(C)C)CC1)c1c[nH]c2ccccc12` (stereo not shown) [Example 84, N-(3-(4-(dimethylamino)-4-phenylpiperidin-1-yl)-3-oxopropyl)-3-(1H-indol-3-yl)-4-methylpentanamide], the values for the inhibition at 1 µM in assay [1] and in assay [2] were 100% and 95%, respectively.
For the compound `CC(C)C(CC(=O)NC(CC(=O)N1CCC(c2cccs2)(N(C)C)CC1)c1ccccc1)c1c[nH]c2ccccc12` (stereo not shown) [Example 85, N-(3-(4-(dimethylamino)-4-(thiophen-2-yl)piperidin-1-yl)-3-oxo-1-phenylpropyl)-3-(1H-indol-3-yl)-4-methylpentanamide], the inhibition at 1 µM turned out to be 101% in assay [1] and 94% in assay [2].
In the case of `CN(C)C1(c2ccccc2)CCN(C(=O)C2CN(C(=O)Cc3c[nH]c4cc(F)ccc34)c3ccccc32)CC1` (stereo not shown) [Example 86, 1-(3-(4-(dimethylamino)-4-phenylpiperidine-1-carbonyl)indolin-1-yl)-2-(6-fluoro-1H-indol-3-yl)ethanone], the inhibition at 1 µM in assay [1] came out at 88%; in assay [2], 94%.
Consider `CC(C)C(CC(=O)N(C)CCN1CCC(c2ccccc2)(N(C)C)CC1)c1c[nH]c2ccccc12` (stereo not shown) [Example 87, N-(2-(4-(dimethylamino)-4-phenylpiperidin-1-yl)ethyl)-3-(1H-indol-3-yl)-N,4-dimethylpentanamide], for which, in assay [1] (1 µM), the “% Inhibition (μ) at 1 μM” value amounted to 102%. In addition, in assay [2], the “% Inhibition (ORL1) at 1 μM” value came to 93%.
`CC(C)C(CC(=O)NCC(=O)N1CCC(c2cccs2)(N(C)C)CC1)c1c[nH]c2ccccc12` (stereo not shown) [Example 88, N-(2-(4-(dimethylamino)-4-(thiophen-2-yl)piperidin-1-yl)-2-oxoethyl)-3-(1H-indol-3-yl)-4-methylpentanamide]: the inhibition at 1 µM came to 94% in assay [1] and 92% in assay [2].
Take `CC(C)C(CC(=O)N1CC(C(=O)N2CCC(c3ccccc3)(N(C)C)CC2)c2ccccc21)c1c[nH]c2ccccc12` (stereo not shown) [Example 89, 1-(3-(4-(dimethylamino)-4-phenylpiperidine-1-carbonyl)indolin-1-yl)-3-(1H-indol-3-yl)-4-methylpentan-1-one]: the inhibition at 1 µM in assay [1] was determined as 94%; in assay [2], 91%.
With `CN(CCN1CCC(c2ccccc2)(N(C)C)CC1)C(=O)Cc1c[nH]c2cc(F)ccc12` [Example 90, N-(2-(4-(dimethylamino)-4-phenylpiperidin-1-yl)ethyl)-2-(6-fluoro-1H-indol-3-yl)-N-methylacetamide], the “% Inhibition (μ) at 1 μM” value in assay [1] (1 µM) is listed as 99%. For the same compound, in assay [2], the “% Inhibition (ORL1) at 1 μM” value was 90%.
As to `CC(CC(=O)NC(CC(=O)N1CCC(c2cccs2)(N(C)C)CC1)c1ccccc1)c1c[nH]c2ccccc12` (stereo not shown) [Example 91, N-(3-(4-(dimethylamino)-4-(thiophen-2-yl)piperidin-1-yl)-3-oxo-1-phenylpropyl)-3-(1H-indol-3-yl)butanamide], the figures for the inhibition at 1 µM in assay [1] and in assay [2] were 97% and 89%, respectively.
